We go through 3 compounds from ChEMBL document CHEMBL1201862, “PubChem BioAssay data set” (2004).

Active and inactive are the calls of the source.

One assay addresses ORF 73 (Human herpesvirus 8, UniProt O40947). As to the kind of experiment: KSHV LANA DNA-binding disruption – biochemical, fluorescence polarization, cherry-picked samples, dose response (AID 504725).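 Further: fluorescence polarization of a labeled DNA duplex reporting LANA DNA binding; potency is for inhibitors that block LANA binding to the DNA.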 Set-up: species or system Human gammaherpesvirus 8. On the technique in general: Fluorescence polarisation rises when a labelled molecule tumbles more slowly, as on binding a larger partner.

The target of a further assay is Keap1/Nrf2 (Homo sapiens, UniProt Q14145). As to the kind of experiment: disruptors of Keap1 binding to Nrf2 peptide – biochemical, fluorescence polarization, cherry-picked samples, dose response (AID 588683).
Keap1/Nrf2, sequence (Q16236 whole entry): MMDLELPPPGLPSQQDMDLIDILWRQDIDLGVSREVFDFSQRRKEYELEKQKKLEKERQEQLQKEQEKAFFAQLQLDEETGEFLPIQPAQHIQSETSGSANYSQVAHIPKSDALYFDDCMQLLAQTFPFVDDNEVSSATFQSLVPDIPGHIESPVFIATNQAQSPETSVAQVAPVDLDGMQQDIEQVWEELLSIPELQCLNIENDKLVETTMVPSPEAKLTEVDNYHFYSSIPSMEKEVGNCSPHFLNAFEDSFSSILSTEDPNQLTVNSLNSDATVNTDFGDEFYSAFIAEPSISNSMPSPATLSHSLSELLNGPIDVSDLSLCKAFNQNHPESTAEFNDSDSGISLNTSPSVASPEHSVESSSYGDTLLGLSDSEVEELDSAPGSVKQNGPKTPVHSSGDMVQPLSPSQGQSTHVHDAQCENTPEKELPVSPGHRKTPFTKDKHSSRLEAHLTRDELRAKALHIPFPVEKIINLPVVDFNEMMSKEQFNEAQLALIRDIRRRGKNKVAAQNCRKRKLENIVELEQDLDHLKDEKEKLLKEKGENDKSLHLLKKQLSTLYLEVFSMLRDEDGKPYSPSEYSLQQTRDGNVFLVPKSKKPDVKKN
Keap1/Nrf2, sequence (Q14145 whole entry): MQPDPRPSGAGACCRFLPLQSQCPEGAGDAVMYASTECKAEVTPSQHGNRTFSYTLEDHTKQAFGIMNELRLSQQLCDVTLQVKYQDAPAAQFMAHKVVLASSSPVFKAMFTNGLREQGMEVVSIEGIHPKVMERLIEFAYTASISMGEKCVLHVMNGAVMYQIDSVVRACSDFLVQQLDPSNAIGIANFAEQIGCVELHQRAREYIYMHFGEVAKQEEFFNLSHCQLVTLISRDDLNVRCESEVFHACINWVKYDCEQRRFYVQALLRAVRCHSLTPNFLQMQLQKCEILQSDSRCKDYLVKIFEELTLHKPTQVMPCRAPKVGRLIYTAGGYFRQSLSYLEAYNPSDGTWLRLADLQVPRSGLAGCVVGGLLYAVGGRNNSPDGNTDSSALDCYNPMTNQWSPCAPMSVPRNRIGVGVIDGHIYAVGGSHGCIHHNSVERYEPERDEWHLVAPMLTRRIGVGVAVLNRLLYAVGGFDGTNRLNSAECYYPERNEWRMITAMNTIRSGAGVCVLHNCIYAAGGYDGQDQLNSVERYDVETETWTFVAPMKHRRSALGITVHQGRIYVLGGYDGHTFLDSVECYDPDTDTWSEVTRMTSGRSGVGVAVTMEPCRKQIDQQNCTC
Assay [1] concerns the target Female germline-specific tumor suppressor gld-1 (Caenorhabditis elegans, UniProt Q17339). The experiment in a line: blockers of GLD-1/TGE RNA complex formation – biochemical, fluorescence polarization, C. elegans, dose response (AID 2802).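 Further: fluorescence polarization of labeled TGE RNA bound by purified gld-1 protein.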
Assay [2] addresses UDP-galactopyranose mutase (Mycobacterium tuberculosis, UniProt P9WIQ1). As to the kind of experiment: Inhibitors of Mycobacterium tuberculosis UDP-galactopyranose mutase (UGM) enzyme Measured in Biochemical System Using Plate Reader - 2105-02_Inhibitor_Dose_CherryPick_Activity. [Related pubchem assays (depositor defined):AID504439].
The target in the next assay is Protein Rev (Human immunodeficiency virus type 1 group M subtype B (isolate HXB2)(HIV-1), UniProt P04618). The experiment in a line: blockers of HIV Rev/RRE RNA complex – biochemical, fluorescence polarization, HIV-1, dose response (AID 434976). On the set-up: species or system Human immunodeficiency virus 1.
Protein Rev, sequence (P04618 whole entry): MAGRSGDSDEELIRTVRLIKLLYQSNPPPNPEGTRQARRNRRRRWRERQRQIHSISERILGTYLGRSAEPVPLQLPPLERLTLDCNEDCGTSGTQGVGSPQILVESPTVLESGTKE
The next assay has as its system INS1. The experiment in a line: INS-1E survival protection against cytokine death – cell-based, luminescence, retest, dose response (AID 449756).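 Further: cell death triggered by IL-1 beta plus TNF-alpha plus IFN-gamma mixture; protective hits raise ATP signal compared with cytokine alone wells.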 It counts as functional. The settings on record: Rattus norvegicus.
Another assay is described as follows: cells. Conditions: HEK-CNG. It counts as functional, cell-based.
The nature of assay [3]: reduction of Shn3 3'UTR-driven luciferase in osteoblasts – cell-based, Clone20 osteoblasts, firefly luciferase, cherry-picked, dose response (AID 624132).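 Further: firefly luciferase luminescence from reporter carrying the Shn3 3'UTR in osteoblasts.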 It counts as functional.
The next assay addresses T1, Galanin receptor type 3 (Homo sapiens, UniProt O60755).
T1 sequence (O60755 whole entry): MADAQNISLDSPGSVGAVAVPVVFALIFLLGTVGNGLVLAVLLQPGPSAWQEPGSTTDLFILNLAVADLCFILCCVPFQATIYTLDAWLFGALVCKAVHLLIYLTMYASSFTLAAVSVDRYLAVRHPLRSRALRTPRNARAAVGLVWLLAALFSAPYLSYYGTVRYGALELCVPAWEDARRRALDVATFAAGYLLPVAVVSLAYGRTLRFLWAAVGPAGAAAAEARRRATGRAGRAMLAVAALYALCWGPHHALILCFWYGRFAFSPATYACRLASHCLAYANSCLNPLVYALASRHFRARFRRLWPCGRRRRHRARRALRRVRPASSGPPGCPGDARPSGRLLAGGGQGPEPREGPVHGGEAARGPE
The experiment in a line: Fluorescence-based cell-based primary high throughput dose response assay to identify antagonists of the Galanin Receptor 3 (GalR3). In kind it is functional.

Assay [4] in a line: blockers of HIV-1 ZM109 envelope-driven cell-cell fusion – HeLa effector, CEM target cells, luciferase, cherry-pick, dose response (AID 652058).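 Further: luciferase signal from HIV-1 Env mediated cell-cell fusion of effector and target cells.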 It counts as functional, cell-based.
The nature of assay [5]: loss of viability in HepG2 cells – cell-based, CellTiter-Glo, cherry-picked, cytotoxicity control for Shn3 inhibitor project, dose response (AID 624134). It counts as functional. Background: In ATP-based viability assays light output follows the ATP content of the culture.
A further assay concerns Jurkat. As to the kind of experiment: blockers of NF-kB activation in T cells – Jurkat, luciferase reporter, luminescence, B- and T-cell, dose response (AID 489004).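 Further: NF-kB luciferase reporter Jurkat cells stimulated with PMA plus ionomycin.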 In kind it is functional, cell-based. Conditions: Homo sapiens.
The nature of assay [6]: HEK-293T viability loss, compound-treated – cell-based, uHTS hits, cytotoxicity control for B/T-cell NF-kB inhibitor project, dose response (AID 489019).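 Further: IC50 reflects cytotoxicity as loss of cell viability.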 It counts as functional.
A short description of assay [7]: non-specific 3'UTR reporter inhibition in Clone20-Shn3RL – cell-based, Renilla luciferase, cherry-picked, counter-screen for Shn3 inhibitor project, dose response (AID 624133). In kind it is functional. (In general: Counterscreens check selectivity or assay interference.)
A short description of assay [8]: HIV-1 AD8 envelope cell-cell fusion blockers – cherry-pick, dose response (AID 652062).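 Further: luciferase signal from cell-cell fusion driven by HIV-1 clade B AD8 Env; potency is for inhibitors of fusion seen as a drop in luminescence.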 In kind it is functional, cell-based.
Assay [9] addresses Voltage-gated inwardly rectifying potassium channel KCNH2 (Homo sapiens, UniProt Q12809). Conditions: Potency.
A further assay concerns the target Cytochrome P450 3A4 (Homo sapiens, UniProt P08684). The settings on record: Potency.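 Further: confirmatory qHTS run detecting inhibitors and substrates of CYP3A4.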
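Wherever EC50 is given: target is galanin receptor GalR3 read with a cAMP biosensor in HEK293 cells.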

Voltage-gated inwardly rectifying potassium channel KCNH2, sequence (Q12809 whole entry): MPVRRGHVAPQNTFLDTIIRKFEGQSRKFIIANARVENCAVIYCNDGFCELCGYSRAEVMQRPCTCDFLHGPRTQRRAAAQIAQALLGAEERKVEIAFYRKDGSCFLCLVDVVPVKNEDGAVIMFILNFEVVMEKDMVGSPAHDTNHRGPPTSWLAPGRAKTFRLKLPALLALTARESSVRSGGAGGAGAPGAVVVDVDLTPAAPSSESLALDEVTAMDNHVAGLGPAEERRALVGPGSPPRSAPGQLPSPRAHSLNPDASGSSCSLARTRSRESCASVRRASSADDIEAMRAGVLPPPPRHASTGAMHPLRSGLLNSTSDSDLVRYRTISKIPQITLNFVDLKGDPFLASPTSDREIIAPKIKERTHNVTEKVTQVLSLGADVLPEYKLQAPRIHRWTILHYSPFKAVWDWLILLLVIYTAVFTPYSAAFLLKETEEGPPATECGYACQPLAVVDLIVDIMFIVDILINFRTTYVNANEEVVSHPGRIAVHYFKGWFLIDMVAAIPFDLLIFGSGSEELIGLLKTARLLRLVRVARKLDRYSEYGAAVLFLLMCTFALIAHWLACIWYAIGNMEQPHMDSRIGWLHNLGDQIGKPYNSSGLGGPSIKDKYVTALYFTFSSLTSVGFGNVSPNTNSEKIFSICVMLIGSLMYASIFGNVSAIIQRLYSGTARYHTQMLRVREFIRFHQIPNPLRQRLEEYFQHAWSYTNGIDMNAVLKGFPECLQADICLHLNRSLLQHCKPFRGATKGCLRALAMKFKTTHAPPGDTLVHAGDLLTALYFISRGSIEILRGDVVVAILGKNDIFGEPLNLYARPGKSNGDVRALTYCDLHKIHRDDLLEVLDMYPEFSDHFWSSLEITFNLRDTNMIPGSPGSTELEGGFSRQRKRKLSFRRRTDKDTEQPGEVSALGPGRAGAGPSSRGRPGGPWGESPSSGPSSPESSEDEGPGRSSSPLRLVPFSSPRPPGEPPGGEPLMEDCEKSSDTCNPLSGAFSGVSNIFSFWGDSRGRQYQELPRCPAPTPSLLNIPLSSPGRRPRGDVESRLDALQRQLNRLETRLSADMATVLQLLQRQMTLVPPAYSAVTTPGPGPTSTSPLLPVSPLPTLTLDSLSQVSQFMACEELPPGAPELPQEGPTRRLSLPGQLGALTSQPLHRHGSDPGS
UDP-galactopyranose mutase, sequence (P9WIQ1 whole entry): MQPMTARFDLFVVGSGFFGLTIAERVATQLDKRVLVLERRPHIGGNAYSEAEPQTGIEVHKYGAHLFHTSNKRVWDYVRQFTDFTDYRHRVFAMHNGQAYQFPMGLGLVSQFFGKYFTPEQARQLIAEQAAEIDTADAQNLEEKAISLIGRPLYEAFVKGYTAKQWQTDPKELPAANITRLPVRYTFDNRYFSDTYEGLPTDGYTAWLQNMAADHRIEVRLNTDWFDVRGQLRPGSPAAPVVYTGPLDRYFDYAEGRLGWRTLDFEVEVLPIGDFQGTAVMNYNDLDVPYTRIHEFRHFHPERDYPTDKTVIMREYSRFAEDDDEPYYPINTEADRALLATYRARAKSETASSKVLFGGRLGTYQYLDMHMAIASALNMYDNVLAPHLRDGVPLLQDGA
ORF 73, sequence (O40947 whole entry): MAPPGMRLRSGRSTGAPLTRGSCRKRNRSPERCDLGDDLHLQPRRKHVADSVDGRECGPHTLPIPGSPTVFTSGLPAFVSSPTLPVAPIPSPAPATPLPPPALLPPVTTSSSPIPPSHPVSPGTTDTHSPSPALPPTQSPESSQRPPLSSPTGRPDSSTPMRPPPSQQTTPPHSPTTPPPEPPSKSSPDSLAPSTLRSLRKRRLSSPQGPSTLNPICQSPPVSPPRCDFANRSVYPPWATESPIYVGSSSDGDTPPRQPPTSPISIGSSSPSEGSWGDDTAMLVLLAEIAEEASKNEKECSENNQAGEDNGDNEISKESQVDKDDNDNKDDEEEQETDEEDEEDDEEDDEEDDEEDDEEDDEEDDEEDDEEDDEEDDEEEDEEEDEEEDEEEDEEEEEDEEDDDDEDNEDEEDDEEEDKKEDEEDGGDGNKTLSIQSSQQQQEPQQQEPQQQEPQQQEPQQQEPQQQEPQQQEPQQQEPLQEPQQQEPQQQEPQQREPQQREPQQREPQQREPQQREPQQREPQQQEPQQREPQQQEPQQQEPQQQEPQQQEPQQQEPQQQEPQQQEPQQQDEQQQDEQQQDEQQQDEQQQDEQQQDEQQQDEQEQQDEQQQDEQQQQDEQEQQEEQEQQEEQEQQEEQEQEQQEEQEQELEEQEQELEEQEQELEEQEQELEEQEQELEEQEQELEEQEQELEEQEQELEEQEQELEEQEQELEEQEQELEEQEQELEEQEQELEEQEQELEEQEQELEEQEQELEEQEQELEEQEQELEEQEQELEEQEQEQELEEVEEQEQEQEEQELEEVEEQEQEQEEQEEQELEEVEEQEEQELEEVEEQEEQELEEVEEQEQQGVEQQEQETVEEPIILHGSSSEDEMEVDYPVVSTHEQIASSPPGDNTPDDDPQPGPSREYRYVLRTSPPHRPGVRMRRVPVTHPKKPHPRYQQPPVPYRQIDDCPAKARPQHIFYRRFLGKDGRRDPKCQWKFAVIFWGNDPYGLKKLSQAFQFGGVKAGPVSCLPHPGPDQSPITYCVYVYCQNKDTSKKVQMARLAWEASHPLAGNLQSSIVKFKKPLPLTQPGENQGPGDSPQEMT
Cytochrome P450 3A4, sequence (P08684 whole entry): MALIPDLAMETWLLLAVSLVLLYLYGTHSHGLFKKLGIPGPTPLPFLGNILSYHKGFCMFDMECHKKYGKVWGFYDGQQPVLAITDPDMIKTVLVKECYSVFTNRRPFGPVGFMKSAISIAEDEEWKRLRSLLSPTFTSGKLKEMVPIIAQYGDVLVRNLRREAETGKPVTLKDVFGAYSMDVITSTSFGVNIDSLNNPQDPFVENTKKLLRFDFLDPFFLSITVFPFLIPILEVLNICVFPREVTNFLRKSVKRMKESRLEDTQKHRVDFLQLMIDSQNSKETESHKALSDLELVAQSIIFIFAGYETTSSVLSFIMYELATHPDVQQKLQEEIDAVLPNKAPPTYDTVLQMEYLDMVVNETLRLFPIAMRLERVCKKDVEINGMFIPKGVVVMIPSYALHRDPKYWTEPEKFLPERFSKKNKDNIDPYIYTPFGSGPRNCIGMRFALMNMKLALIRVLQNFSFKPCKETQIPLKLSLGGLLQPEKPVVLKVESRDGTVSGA
Female germline-specific tumor suppressor gld-1, sequence (Q17339 whole entry): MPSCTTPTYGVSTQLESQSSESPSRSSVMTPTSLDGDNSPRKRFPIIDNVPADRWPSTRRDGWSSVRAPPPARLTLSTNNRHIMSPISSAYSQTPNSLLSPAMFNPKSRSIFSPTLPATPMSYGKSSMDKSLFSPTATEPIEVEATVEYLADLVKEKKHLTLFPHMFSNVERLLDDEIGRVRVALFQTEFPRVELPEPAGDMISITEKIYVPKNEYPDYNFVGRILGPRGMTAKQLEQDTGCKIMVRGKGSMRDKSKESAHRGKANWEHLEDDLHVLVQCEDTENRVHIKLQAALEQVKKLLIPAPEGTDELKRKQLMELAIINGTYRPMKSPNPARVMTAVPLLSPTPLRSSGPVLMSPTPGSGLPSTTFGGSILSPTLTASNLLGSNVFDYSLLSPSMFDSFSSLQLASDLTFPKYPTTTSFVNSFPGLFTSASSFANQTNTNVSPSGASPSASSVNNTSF

As a reminder, the AC50 is the concentration giving half of the maximal activity seen. The IC50 is the concentration needed to halve the response being measured. `Nc1ccc2nonc2c1[N+](=O)[O-]`: the AC50 at ORF 73 is 8.03 µM (active); on Keap1/Nrf2, 7.99 µM (active); in [2], 7.95 µM (active). Also, the results for the concentration for half-maximal inhibition (IC50) (in assay [1]; on Protein Rev) were 0.248 µM (active) and 0.69 µM (active), respectively.
The term EC50 denotes the concentration needed to bring the measured effect to its halfway point. As to `COc1cc(CSc2nnnn2-c2ccc(C)cc2)cc(OC)c1OC`, the AC50 in the assay on INS1 is 2.98 µM (active); in assay [3], 1.02 µM (active); in assay [4], 4.94 µM (active); in assay [5], 2.51 µM (active); in [7], 2.16 µM (active); in assay [8] it was 4.54 µM (active). The EC50 in “cells” is > 29.9 µM (inactive). The IC50 at Galanin receptor type 3 is 1.22 µM (active); in the assay with Jurkat, > 80 µM (inactive); in [6] it was > 80 µM (inactive).
With `Clc1ccc(C(Cl)(Cl)Cl)c(Cl)c1`, the values for the AC50 (in assay [9]; on Cytochrome P450 3A4) were 20 µM (inconclusive) and 31.6 µM (inconclusive), respectively.
